From ChEMBL document CHEMBL1201862, “PubChem BioAssay data set” (2004)
Calls of active or inactive are those of the source.

How the values were obtained:
[1] = inhibitors of intracellular T. cruzi replication, confirmation, NIH3T3 host cells, beta-gal luminescence (AID 2044); format: functional, cell-based;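 note: intracellular parasites grown in NIH/3T3 mouse fibroblasts as host cells; luminescent beta-galactosidase reporter signal from transgenic T. cruzi replicating inside host cells; inhibitors lower the luminescence signal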
[2] = cytotoxicity toward NIH3T3 fibroblasts, dose response, counter-screen, cell-based, ATP luminescence, mouse fibroblasts (AID 2010); format: functional;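 note: cells exposed to compound for about 90 hours before reading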
[3] = biological target: T1, Corticotropin-releasing factor receptor 2/Corticotropin-releasing factor-binding protein (Homo sapiens, UniProt P24387+Q13324); assay: Dose Response confirmation of uHTS hits for small molecule antagonists of the CRF-binding protein and CRF-R2 receptor complex.; format: functional; settings: read-out: IC50_Mean
T1 sequence (Q13324 whole entry): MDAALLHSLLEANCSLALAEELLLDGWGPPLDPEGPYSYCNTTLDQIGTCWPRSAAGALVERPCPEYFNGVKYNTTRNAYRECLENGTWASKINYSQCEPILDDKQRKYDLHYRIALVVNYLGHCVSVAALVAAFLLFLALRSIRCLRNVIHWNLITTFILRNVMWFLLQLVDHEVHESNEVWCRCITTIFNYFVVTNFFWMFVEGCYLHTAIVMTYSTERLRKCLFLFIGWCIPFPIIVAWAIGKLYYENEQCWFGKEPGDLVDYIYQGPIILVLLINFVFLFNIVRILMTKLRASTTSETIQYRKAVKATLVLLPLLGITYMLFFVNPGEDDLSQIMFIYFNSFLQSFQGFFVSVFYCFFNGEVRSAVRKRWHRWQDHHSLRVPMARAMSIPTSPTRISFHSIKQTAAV
T1 sequence (P24387 whole entry): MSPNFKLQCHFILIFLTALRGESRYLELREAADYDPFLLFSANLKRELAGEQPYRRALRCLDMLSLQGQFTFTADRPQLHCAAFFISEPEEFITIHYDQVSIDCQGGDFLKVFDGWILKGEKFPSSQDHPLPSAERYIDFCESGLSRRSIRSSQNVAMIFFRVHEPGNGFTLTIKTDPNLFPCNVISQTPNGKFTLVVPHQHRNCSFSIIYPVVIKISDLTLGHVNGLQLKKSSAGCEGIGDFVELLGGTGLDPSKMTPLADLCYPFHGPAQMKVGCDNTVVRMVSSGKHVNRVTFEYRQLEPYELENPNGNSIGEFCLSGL

[4] = biological target: T1, Corticotropin-releasing factor receptor 2/Corticotropin-releasing factor-binding protein; assay: activators of CRF receptor 2 with binding protein – uHTS hits, confirmation (AID 602473); format: functional; settings: read-out: EC50_Mean
[5] = THP-1 cell cytotoxicity, dose response, cytotoxicity control for Vif-APOBEC3G degradation inhibitor project, THP-1 cells (AID 1117359); format: functional; settings: Human immunodeficiency virus 1, THP-1
[6] = biological target: T2, Short transient receptor potential channel 4 (Mus musculus, UniProt Q9QUQ5); assay: mouse TRPC4 channel inhibitors, dose response, cell-based, HEK293 TRPC4/mu-opioid, Fluo-4 calcium (AID 434942); format: functional;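 note: potency of inhibitors blocking the TRPC4 calcium response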
T2 sequence (Q9QUQ5 whole entry): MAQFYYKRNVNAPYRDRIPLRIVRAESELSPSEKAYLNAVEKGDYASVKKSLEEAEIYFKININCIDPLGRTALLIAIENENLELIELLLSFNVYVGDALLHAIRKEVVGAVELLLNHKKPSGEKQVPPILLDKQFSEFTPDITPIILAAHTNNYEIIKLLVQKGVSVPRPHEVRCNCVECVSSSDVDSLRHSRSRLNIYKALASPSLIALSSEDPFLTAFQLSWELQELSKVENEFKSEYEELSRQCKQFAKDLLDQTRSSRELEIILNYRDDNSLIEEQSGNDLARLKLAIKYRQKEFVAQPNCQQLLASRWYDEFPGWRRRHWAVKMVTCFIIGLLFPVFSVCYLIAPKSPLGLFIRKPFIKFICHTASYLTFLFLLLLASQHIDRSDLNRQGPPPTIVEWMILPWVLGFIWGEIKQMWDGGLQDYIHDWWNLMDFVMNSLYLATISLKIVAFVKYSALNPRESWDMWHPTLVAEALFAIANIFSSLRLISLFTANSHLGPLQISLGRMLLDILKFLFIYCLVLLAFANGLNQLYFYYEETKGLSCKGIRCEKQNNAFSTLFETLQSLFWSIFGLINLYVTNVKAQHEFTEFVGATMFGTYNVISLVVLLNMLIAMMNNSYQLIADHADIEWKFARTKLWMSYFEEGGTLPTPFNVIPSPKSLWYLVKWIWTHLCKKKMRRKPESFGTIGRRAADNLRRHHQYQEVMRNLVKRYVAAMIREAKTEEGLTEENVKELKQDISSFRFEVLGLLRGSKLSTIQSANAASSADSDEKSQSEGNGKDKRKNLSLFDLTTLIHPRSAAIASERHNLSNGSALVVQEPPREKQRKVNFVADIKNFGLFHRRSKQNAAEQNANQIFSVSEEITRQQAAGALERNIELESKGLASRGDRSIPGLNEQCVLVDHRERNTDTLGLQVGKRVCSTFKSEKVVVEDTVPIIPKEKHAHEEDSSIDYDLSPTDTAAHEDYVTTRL

HEK293 [7] = assay: NOD1 signaling inhibitors, primary screen, cell-based, luminescence, uHTS (AID 1578); format: functional; settings: Homo sapiens
HEK293 [8] = assay: cells; format: functional, cell-based; settings: Homo sapiens
HEK293 [9] = assay: cells; format: functional, cell-based; settings: Homo sapiens; remark: listed apart in the source
[10] = biological target: Nucleotide-binding oligomerization domain-containing protein 2 (Homo sapiens, UniProt Q9HC29); assay: NOD2 signaling inhibitors, cell-based, luminescence, uHTS, HEK293 (AID 1566); format: functional
Nucleotide-binding oligomerization domain-containing protein 2, sequence (Q9HC29 whole entry, the tested form may be a part): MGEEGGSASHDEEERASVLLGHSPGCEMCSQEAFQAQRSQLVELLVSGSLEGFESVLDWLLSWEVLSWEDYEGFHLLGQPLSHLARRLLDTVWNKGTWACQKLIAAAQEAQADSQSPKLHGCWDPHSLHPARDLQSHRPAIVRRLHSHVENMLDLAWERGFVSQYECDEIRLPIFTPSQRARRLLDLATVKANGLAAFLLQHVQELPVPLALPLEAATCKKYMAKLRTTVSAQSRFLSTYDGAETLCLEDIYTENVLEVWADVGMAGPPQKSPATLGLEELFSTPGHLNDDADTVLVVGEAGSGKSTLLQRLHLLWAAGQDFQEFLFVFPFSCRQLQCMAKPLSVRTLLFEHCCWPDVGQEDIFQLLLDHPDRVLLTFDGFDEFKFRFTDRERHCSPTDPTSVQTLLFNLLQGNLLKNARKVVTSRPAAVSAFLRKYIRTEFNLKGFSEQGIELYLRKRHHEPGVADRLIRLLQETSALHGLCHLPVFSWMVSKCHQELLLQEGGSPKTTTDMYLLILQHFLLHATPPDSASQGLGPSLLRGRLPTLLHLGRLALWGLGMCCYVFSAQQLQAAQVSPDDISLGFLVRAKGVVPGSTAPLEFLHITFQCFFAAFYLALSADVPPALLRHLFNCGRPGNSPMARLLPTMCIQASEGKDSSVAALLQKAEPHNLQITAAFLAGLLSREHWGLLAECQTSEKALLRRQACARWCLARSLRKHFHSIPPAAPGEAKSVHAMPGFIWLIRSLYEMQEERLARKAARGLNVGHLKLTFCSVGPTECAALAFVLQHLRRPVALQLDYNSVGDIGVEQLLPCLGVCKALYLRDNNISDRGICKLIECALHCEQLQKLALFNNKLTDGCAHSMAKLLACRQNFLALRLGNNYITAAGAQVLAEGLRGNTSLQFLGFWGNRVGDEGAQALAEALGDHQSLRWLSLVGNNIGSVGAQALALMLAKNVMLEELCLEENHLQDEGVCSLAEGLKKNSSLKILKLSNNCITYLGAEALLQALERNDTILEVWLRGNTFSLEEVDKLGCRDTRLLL

HEK293 [11] = assay: NOD2 signaling inhibitors in MDP-stimulated cells, cell-based, uHTS, luminescence (AID 2001); format: functional; settings: Homo sapiens
HEK293 [12] = assay: cells; format: functional, cell-based; settings: Homo sapiens; remark: listed apart in the source
Estrogen receptor = biological target: T3, Estrogen receptor (Homo sapiens, UniProt P03372);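 note: potency for inhibiting coactivator peptide recruitment to the receptor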
T3 sequence (P03372 whole entry): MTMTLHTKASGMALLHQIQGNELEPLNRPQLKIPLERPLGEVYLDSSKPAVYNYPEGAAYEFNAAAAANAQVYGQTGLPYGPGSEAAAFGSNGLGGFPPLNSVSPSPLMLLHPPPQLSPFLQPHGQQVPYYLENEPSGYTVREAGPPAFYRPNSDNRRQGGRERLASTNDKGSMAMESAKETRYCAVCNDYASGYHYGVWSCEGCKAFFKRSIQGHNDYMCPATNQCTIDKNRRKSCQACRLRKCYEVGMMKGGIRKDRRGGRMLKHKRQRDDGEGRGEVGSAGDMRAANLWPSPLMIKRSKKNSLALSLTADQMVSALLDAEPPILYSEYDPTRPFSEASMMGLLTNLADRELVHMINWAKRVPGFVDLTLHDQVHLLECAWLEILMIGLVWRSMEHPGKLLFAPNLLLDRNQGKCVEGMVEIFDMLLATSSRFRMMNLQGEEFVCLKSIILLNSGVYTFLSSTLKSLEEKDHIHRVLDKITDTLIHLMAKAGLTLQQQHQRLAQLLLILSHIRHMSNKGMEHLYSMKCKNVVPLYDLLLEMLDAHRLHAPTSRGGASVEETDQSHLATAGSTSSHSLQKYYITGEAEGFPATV

[13] = THP-1 cell cytotoxicity, dose response, cytotoxicity control for non-replicating M. tuberculosis project (AID 489025); format: functional
[14] = Vero E6 cell cytotoxicity, dose response, cytotoxicity control for non-replicating M. tuberculosis project, secondary assay (AID 492998); format: functional, VeroE6; settings: Vero C1008
cells = format: functional
Cytochrome P450 2D6 = Cytochrome P450 2D6 (Homo sapiens, UniProt P10635);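 note: CYP2D6 member of a cytochrome P450 panel assay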
Cytochrome P450 2D6, sequence (P10635 whole entry): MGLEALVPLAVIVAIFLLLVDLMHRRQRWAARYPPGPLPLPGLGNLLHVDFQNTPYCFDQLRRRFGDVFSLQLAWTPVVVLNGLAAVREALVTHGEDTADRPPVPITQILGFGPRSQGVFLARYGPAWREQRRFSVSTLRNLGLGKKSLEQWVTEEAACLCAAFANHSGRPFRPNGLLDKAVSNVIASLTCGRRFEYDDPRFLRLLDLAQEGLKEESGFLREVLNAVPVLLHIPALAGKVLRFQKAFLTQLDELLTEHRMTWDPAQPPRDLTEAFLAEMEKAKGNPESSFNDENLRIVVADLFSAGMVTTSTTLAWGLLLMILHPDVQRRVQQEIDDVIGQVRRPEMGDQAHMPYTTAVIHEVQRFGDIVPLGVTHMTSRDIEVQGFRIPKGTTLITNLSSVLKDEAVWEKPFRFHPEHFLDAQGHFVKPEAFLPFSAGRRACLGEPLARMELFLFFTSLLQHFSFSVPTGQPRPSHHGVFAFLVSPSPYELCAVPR

Cytochrome P450 2C9 = Cytochrome P450 2C9 (Homo sapiens, UniProt P11712)
Cytochrome P450 2C9, sequence (P11712 whole entry): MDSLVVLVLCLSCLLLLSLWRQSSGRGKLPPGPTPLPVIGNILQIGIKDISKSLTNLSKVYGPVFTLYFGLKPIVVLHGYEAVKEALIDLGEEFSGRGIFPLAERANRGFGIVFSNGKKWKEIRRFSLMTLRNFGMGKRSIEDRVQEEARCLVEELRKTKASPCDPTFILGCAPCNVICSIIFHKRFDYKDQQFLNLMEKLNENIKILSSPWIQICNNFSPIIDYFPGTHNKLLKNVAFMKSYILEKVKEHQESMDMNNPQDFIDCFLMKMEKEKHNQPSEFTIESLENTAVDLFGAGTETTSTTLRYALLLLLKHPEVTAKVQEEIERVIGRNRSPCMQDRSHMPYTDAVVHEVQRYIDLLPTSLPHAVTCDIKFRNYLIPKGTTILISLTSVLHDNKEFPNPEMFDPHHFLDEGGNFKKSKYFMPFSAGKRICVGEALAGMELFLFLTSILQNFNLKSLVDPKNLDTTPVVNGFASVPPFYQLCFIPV

[15] = biological target: T4, Rac GTPase-activating protein 1 (Homo sapiens, UniProt Q9H0H5); assay: MgcRacGAP GTPase-activating activity inhibitors, confirmation, biochemical, ADP Hunter fluorescence, primary and confirmatory (AID 624330); format: functional
T4 sequence (Q9H0H5 whole entry): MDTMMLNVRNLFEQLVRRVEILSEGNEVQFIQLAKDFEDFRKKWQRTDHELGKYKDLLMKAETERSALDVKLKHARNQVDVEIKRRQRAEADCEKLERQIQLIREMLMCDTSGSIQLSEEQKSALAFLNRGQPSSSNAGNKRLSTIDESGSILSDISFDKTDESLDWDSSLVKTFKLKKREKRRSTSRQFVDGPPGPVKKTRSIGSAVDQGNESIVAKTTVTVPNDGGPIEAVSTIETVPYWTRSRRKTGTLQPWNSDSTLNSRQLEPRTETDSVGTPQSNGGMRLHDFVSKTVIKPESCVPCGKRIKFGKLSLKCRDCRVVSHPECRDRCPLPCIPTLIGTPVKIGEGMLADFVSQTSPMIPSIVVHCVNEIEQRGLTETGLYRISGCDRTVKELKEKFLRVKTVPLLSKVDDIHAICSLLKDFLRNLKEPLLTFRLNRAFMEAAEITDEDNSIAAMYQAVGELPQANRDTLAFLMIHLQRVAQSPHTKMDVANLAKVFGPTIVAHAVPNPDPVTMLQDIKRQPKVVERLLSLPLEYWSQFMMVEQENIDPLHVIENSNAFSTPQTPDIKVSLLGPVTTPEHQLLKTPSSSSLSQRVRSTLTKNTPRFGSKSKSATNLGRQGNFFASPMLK

With `CCOC(=O)c1c(C)[nH]c(C(=O)OCC(=O)Nc2sc(C(=O)N(C)C)c(C)c2C(=O)OCC)c1C` the EC50 [1] was 0.36 µM (active), the EC50 [2] was > 60 µM (not active) and the IC50 [3] was > 47.1 µM (inactive). The EC50 [4] was > 53 µM (inactive) and the CC50 [5] was > 40 µM (active).

In the case of `Cc1cccc(CCN(C(=O)c2snc(C(N)=O)c2N)C(C(=O)NCC2CCCO2)c2ccc(F)cc2)c1` (stereo not given), the EC50 [6] is reported as 2.66 µM (active).

In the case of `Cc1cc(C)cc(OCC(=O)Nc2nc3ccc([N+](=O)[O-])cc3s2)c1`, the EC50 (HEK293 [7]) is reported as 4.56 µM (active), the IC50 (HEK293 [8]) is reported as 1.83 µM (active) and the IC50 (HEK293 [9]) is reported as > 20 µM (inactive). For the same compound, the EC50 [10] was 7.65 µM (active), the IC50 (HEK293 [11]) was 8.1 µM (active) and the IC50 (HEK293 [12]) was > 20 µM (inactive).

For `O=c1[nH]c2cc3c(cc2cc1CN(Cc1cccs1)Cc1nnnn1Cc1ccco1)OCCO3`, the IC50 (Estrogen receptor) was > 50 µM (not active).

In the case of `CC(=O)CC1(OC(C)=O)C(=O)N(C)c2ccccc21` (stereo not given), the CC50 [13] is reported as 35.5 µM (active), the CC50 [14] is reported as 15.5 µM (active) and the IC50 (cells) is reported as 14.4 µM (active).

With `CC1CCc2sc3ncnc(N4CCOCC4)c3c2C1` (stereo not given) the EC50 (HEK293 [7]) was 6.02 µM (active), the IC50 (HEK293 [8]) was 3.54 µM (active) and the IC50 (HEK293 [9]) was > 20 µM (inactive). The EC50 [10] was 8.76 µM (active), the IC50 (HEK293 [11]) was 4.85 µM (active) and the IC50 (HEK293 [12]) was > 20 µM (inactive).

With `CCOc1cc(/C=C2\C(=N)N3N=CSC3=NC2=O)ccc1OS(=O)(=O)c1ccccc1` the EC50 [6] was 4.73 µM (active).

With `Cc1ccccc1C(=O)NC(C)c1ccc2c(c1)CCCC2` (stereo not given) the AC50 (Cytochrome P450 2D6) was 15.8 µM (inconclusive) and the AC50 (Cytochrome P450 2C9) was “inconclusive”.

For `C=CCc1ccc(OCCOCCNCCCC)c(OC)c1`, the IC50 [15] was 132 µM (active) and the CC50 [5] was > 40 µM (active).

In the case of `Cc1ccc(C)c(S(=O)(=O)NCc2ccc(C(=O)N3CCC(Cc4ccccc4)CC3)cc2)c1`, the EC50 [1] is reported as 2.66 µM (active), the EC50 [2] is reported as > 60 µM (not active) and the AC50 (Cytochrome P450 2C9) is reported as “inconclusive”.
